Measured values: ChEMBL document CHEMBL5150016, “Inhibiting Sodium Taurocholate Cotransporting Polypeptide in HBV-Related Diseases: From Biological Function to Therapeutic Potential” (J Med Chem, 2022)
≈ marks a conversion by molar mass, not a printed value. Values belong to the compound of their own block, whether it stands above or below them.

Assays:
[1] = molecular target: T1, Hepatic sodium/bile acid cotransporter (Homo sapiens, UniProt Q14973); assay: Inhibition of HBV subgenotype D3 [3H]-myr-preS1 (2 to 48 residues) peptide binding to human NTCP in HEK293 cells preincubated for 5 mins followed by substrate addition and measured after 10 mins using by microplate scintillation counter analysis; assay type: cell-based
T1 sequence (Q14973 whole entry): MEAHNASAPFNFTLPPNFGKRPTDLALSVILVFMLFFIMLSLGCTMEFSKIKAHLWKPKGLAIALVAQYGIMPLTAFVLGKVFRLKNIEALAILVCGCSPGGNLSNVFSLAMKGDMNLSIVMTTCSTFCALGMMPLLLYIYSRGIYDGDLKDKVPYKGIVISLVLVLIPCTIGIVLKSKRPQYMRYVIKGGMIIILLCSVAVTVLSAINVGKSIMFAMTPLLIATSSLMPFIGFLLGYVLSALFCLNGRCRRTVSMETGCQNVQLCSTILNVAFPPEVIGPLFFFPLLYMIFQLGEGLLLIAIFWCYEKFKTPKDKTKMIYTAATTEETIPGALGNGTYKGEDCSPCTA

Hepatitis B virus [2] = assay: Antiviral activity against HBV infected human HepG2-hNTCP cells assessed as reduction of HBV DNA level preincubated for 3 hrs followed by viral infection for 16 hrs further compound washout and measured 6 days post infection by qPCR analysis; assay type: functional, organism-based
Hepatitis B virus [3] = assay: Antiviral activity against HBV infected HepG2 2.2.15 cells assessed as reduction in HBsAg level at 50 microg/ml for 48 hrs by ELISA; assay type: functional, organism-based; parameters: Activity: scale not given: the % may be the effect or the level left; details: for Activity: dose 50 µg/ml, time 48 hrs
Hepatitis B virus [4] = assay: Antiviral activity against HBV infected HepG2 2.2.15 cells assessed as reduction in HBeAg level at 50 microg/ml for 48 hrs by ELISA; assay type: functional; parameters: scale not given: the % may be the effect or the level left; details: dose 50 µg/ml
Hepatitis B virus [5] = assay: Antiviral activity against HBV infected in human HepG2-hNTCP cells assessed as reduction in intracellular HBV RNA incubated for 16 hrs followed by compound washout and measured after 6 days post infection by ELISA; assay type: functional, organism-based
Hepatitis B virus [6] = assay: Antiviral activity against HBV infected HepG2 cells assessed as reduction in HBsAg level; assay type: functional, organism-based; details: HepG2 2.2.15
Hepatitis B virus [7] = assay: Antiviral activity against HBV infected HepG2 cells assessed as reduction in HBeAg level; assay type: functional, organism-based; details: HepG2 2.2.15
[8] = molecular target: T1, Hepatic sodium/bile acid cotransporter; assay: Inhibition of TAMRA-labeled preS1-peptide binding to human NTCP in HepG2-hNTCP cells incubated for 30 mins by […]; assay type: cell-based
[9] = molecular target: T1, Hepatic sodium/bile acid cotransporter; assay: Inhibition of human NTCP mediated TCA uptake in HepG2-hNTCP cells incubated for 15 mins using [3H] taurocholic acid as substrate by liquid scintillation counter analysis; assay type: cell-based
Hepatitis delta virus [10] = assay: Antiviral activity against hepatitis D virus infected in human HepG2-hNTCP cells assessed as reduction in viral replication preincubated for 5 mins followed by viral infection measured after 6 hrs post infection by RT-qPCR analysis; assay type: functional, organism-based
HepG2 = assay: Antiproliferative activity against human HEpG2 cells; assay type: functional, cell-based
Hepatitis B virus [11] = assay: Antiviral activity against HBV infected HepG2 2.2.15 cells assessed as reduction in HBsAg level and measured after 9 days by ELISA; assay type: functional, organism-based; details: HepG2 2.2.15, 216 h
Hepatitis B virus [12] = assay: Antiviral activity against HBV infected HepG2 2.2.15 cells assessed as reduction in HBeAg level and measured after 9 days by ELISA; assay type: functional, organism-based; details: HepG2 2.2.15, 216 h
[13] = molecular target: T1, Hepatic sodium/bile acid cotransporter; assay: Inhibition of preS1-peptide binding to human HA-tagged NTCP in U2OS expresseing NTCP in incubated for 24 hrs using Myrcludex B as substrate by competitive binding assay; assay type: cell-based
[14] = molecular target: T1, Hepatic sodium/bile acid cotransporter; assay: Inhibition of human NTCP mediated TCA uptake in U2OS expresseing HA-tagged NTCP cells preincubated for 10 mins followed by substrate addition and measured after 2 mins using [3H]-taurocholate as substrate by liquid scintillation counter analysis; assay type: cell-based
Hepatitis B virus [15] = assay: Antiviral activity against HBV infected in human HepG2-hNTCP cells assessed as reduction in HBsAg level preincubated for 2 hrs followed by viral infection for 16 hrs further compound washout and measured after 12 days post infection by ELISA; assay type: functional, organism-based
Hepatitis B virus [16] = assay: (§1) Antiviral activity against HBV infected in human DMSO differentiated imHC cells assessed as reduction in intracellular HBV DNA at 30 uM preincubated for 2 hrs followed by viral infection for 18 hrs followed by compound washout and further treated with fresh compound for 24 hrs and measured on day 7 post infection by real-time qPCR analysis; assay type: functional; parameters: scale not given: the % may be the effect or the level left; details: time 44 hrs
Hepatitis B virus [17] = assay: as §1, with “viral load” for “intracellular HBV DNA”; assay type: functional; parameters: scale not given: the % may be the effect or the level left; details: time 44 hrs
[18] = molecular target: T1, Hepatic sodium/bile acid cotransporter; assay: Binding affinity to human NTCP assessed as dissociation constant by isothermal titration calorimetry
Hepatitis B virus [19] = assay: Antiviral activity against HBV infected human DMSO differentiated HuS-E/2 cells assessed as reduction of HBV core protein level incubated for 20 hrs by Western blot analysis; assay type: functional, organism-based; details: HuS-E/2, 20 h
Hepatitis B virus [20] = assay: Antiviral activity against HBV infected human DMSO differentiated HuS-E/2 cells overexpressing NTCP assessed as assessed as inhibition of viral entry by measuring HBV mRNA level at 20 uM by qPCR analysis relative to control; assay type: functional
Hepatitis B virus [21] = assay: Antiviral activity against HBV infected human DMSO differentiated HuS-E/2 cells overexpressing NTCP assessed as assessed as inhibition of viral entry by measuring HBV mRNA level by qPCR analysis; assay type: functional, organism-based
[22] = molecular target: T1, Hepatic sodium/bile acid cotransporter; assay: Binding affinity to NTCP (unknown origin)
Hepatitis delta virus [23] = assay: Antiviral activity against hepatitis D virus infected in human Huh-7 cells overexpressing NTCP assessed as reduction in intracellular HDV RNA for 20 hrs followed by viral infection further compound washout and measured after 6 days post infection by RT-qPCR analysis; assay type: functional, organism-based

SMILES: C=C(C)[C@@H]1CC[C@]2(/C=N/O)CC[C@]3(C)[C@H](CC[C@@H]4[C@@]5(C)CC[C@H](O)C(C)(C)[C@@H]5CC[C@]43C)[C@@H]12
IC50 [1]: 11 µM

IC50 (Hepatitis B virus [2]): 30 µM
SMILES: Cc1cc(OCCCS(C)(=O)=O)cc(C)c1-c1cccc(COc2ccc3c(c2)OC[C@H]3CC(=O)O)c1

SMILES: C[C@H]1O[C@H](Oc2c(-c3cc(O)c(O)c(O)c3)oc3cc(O)cc(O)c3c2=O)[C@@H](O)[C@@H](O)[C@@H]1O
Activity (Hepatitis B virus [3]): 44%
Activity (Hepatitis B virus [4]): 35%

IC50 (Hepatitis B virus [5]): 3.8 µM
SMILES: O=C1N=C(O)S/C1=C\c1ccc(OCc2ccc(-c3ccccc3)cc2)cc1

IC50 (Hepatitis B virus [6]): 3.95 ng/mL (≈ 0.00906 µM)
IC50 (Hepatitis B virus [7]): 15 ng/mL (≈ 0.0344 µM)
SMILES: Cc1ccc(C(=O)NCC(=O)N/N=C/c2ccccc2OCc2ccccc2Cl)cc1

SMILES: C=C(C)[C@@H]1CC[C@]2(CO)CC[C@]3(C)[C@H](CC[C@@H]4[C@@]5(C)CC[C@H](OC(=O)/C=C/c6ccc(O)c(O)c6)C(C)(C)[C@@H]5CC[C@]43C)[C@@H]12
IC50 [1]: 6 µM

IC50 [8]: 145 µM
IC50 [9]: 12.5 µM
SMILES: CCCCCCc1c(C)c2ccc(OCC(=O)NC(Cc3ccccc3)C(=O)O)cc2oc1=O (stereo not given)

IC50 [8]: 150 µM
IC50 [9]: 13.3 µM
SMILES: Cc1c(Cc2ccccc2)c(=O)oc2cc(OCC(=O)NC(CSCc3ccccc3)C(=O)O)ccc12 (stereo not given)

IC50 [1]: 16.5 µM
IC50 (Hepatitis delta virus [10]): 70 µM
SMILES: COc1ccc([C@H](O)[C@H](c2ccccn2)[C@@H](Nc2ccccn2)c2ccccc2)cc1

IC50 (Hepatitis B virus [5]): 1.7 µM
SMILES: O=C1NC(=O)/C(=C/c2ccc(-c3ccc(-c4cccc5ccccc45)cc3)cc2)S1

IC50 [1]: 16 µM
IC50 (Hepatitis delta virus [10]): 15 µM
SMILES: O=Cc1cccc([C@@H]([C@H](Nc2ccccn2)c2ccccc2)[C@@H](O)c2ccccc2)n1

IC50 [1]: 6.5 µM
IC50 (Hepatitis delta virus [10]): 70 µM
SMILES: O[C@H](c1ccc([C@@H](O)[C@@H](c2ccccn2)[C@H](Nc2ccccn2)c2ccccc2)cc1)[C@@H](c1ccccn1)[C@H](Nc1ccccn1)c1ccccc1

IC50 [8]: 238 µM
IC50 [9]: 17.8 µM
SMILES: CCCCCCc1cc2ccc(OCC(=O)NC(CCSC)C(=O)O)cc2oc1=O (stereo not given)

IC50 (HepG2): 7.36 µM
IC50 (Hepatitis B virus [6]): 3.24 ng/mL (≈ 0.00568 µM)
IC50 (Hepatitis B virus [7]): 7.64 ng/mL (≈ 0.0134 µM)
SMILES: CC(C)(C)OC(=O)N1CCN(CC(=O)NCc2cccc(CNS(=O)(=O)c3ccc(C(F)(F)F)cc3)c2)CC1

SMILES: C=C(CO)[C@@H]1CC[C@]2(COC(C)=O)CC[C@]3(C)[C@H](CC[C@@H]4[C@@]5(C)CC[C@H](OC(C)=O)C(C)(C)[C@@H]5CC[C@]43C)[C@@H]12
IC50 [1]: 8 µM

IC50 (Hepatitis B virus [5]): 5.2 µM
SMILES: O=C1NC(=O)C(Cc2ccc(OCc3ccc(-c4ccccc4)cc3)cc2)S1 (stereo not given)

IC50 [8]: 123 µM
IC50 [9]: 16.2 µM
SMILES: Cc1c(OCC(=O)NC(CSCc2ccccc2)C(=O)O)ccc2c3c(c(=O)oc12)CCCC3 (stereo not given)

IC50 (Hepatitis B virus [11]): 7.5 µM
IC50 (Hepatitis B virus [12]): 3.7 µM
SMILES: CN1CCCC(n2nc(Cc3ccc(Cl)cc3)c3ccccc3c2=O)CC1 (stereo not given) [AZELASTINE]

SMILES: C=C(C)[C@@H]1CC[C@]2(COC(C)=O)CC[C@]3(C)[C@H](CC[C@@H]4[C@@]5(C)CC[C@H](OC(C)=O)C(C)(C)[C@@H]5CC[C@]43C)[C@@H]12 [BETULIN DIACETATE]
IC50 [1]: 199 µM

IC50 [13]: > 1 µM
IC50 [14]: 7.1 µM
SMILES: COc1cc(-c2ccc(/N=N/c3ccc4c(S(=O)(=O)O)cc(S(=O)(=O)O)c(N)c4c3O)c(OC)c2)ccc1/N=N/c1ccc2c(S(=O)(=O)O)cc(S(=O)(=O)O)c(N)c2c1O [CHICAGO SKY BLUE]

IC50 (Hepatitis B virus [15]): 5 µM
SMILES: CC1(COc2ccc(CC3SC(=O)NC3=O)cc2)CCCCC1 (stereo not given) [CIGLITAZONE]

Kd [18]: 64.3 µM
SMILES: COc1cc(/C=C/C(=O)CC(=O)/C=C/c2ccc(O)c(OC)c2)ccc1O [CURCUMIN]
Activity (Hepatitis B virus [16]): 67%
Activity (Hepatitis B virus [17]): 55%

SMILES: O=C(O[C@@H]1Cc2c(O)cc(O)cc2O[C@@H]1c1cc(O)c(O)c(O)c1)c1cc(O)c(O)c(O)c1 [EPIGALOCATECHIN GALLATE]
IC50 (Hepatitis B virus [19]): 10 µM

SMILES: CC(C)[C@@H](C)/C=C/[C@@H](C)[C@H]1CC[C@@H]2[C@]1(C)CC[C@H]1[C@]23C=C[C@]2(C[C@@H](O)CC[C@]12C)OO3 [ERGOSTEROL PEROXIDE]
inhibition at 20 µM (Hepatitis B virus [20]): 75%
EC50 (Hepatitis B virus [21]): 9.64 µM

SMILES: O=C1[C@H](CC[C@H](O)c2ccc(F)cc2)[C@@H](c2ccc(O)cc2)N1c1ccc(F)cc1 [EZETIMIBE]
Ki [22]: 25 µM
EC50 (Hepatitis delta virus [23]): 10.4 µM

SMILES: CCCCC1=NC2(CCCC2)C(=O)N1Cc1ccc(-c2ccccc2-c2nnn[nH]2)cc1 [IRBESARTAN]
EC50 (Hepatitis delta virus [23]): 9.4 µM

SMILES: O=c1c(O)c(-c2ccc(O)c(O)c2)oc2cc(O)cc(O)c12 [QUERCETIN]
Activity (Hepatitis B virus [3]): 60%
Activity (Hepatitis B virus [4]): 62%

SMILES: CC(C)c1nc(CN(C)C(=O)N[C@H](C(=O)N[C@@H](Cc2ccccc2)C[C@H](O)[C@H](Cc2ccccc2)NC(=O)OCc2cncs2)C(C)C)cs1 [RITONAVIR]
EC50 (Hepatitis delta virus [23]): 9.1 µM

IC50 (Hepatitis B virus [3]; Hepatitis B virus, HepG2 2.2.15, 48 h): 5.1 µM
SMILES: CN(CCOc1ccc(CC2SC(=O)NC2=O)cc1)c1ccccn1 (stereo not given) [ROSIGLITAZONE]

IC50 [13]: > 1 µM
SMILES: O=C(O)c1cc(/N=N/c2ccc(S(=O)(=O)Nc3ccccn3)cc2)ccc1O [SULFASALAZINE]

IC50 (Hepatitis B virus [15]): 10 µM
SMILES: Cc1c(C)c2c(c(C)c1O)CCC(C)(COc1ccc(CC3SC(=O)NC3=O)cc1)O2 (stereo not given) [TROGLITAZONE]

IC50 [13]: > 1 µM
SMILES: COc1cc(C(=O)NS(=O)(=O)c2ccccc2C)ccc1Cc1cn(C)c2ccc(NC(=O)OC3CCCC3)cc12 [ZAFIRLUKAST]
